The source of these data is patent US20250261660A1, “FORMULATIONS AND METHODS FOR USE IN OXIDATION TREATMENT APPLICATIONS” (priority 2022, published 2025).

This experiment concerns microbial control in water. The experiment in a line: Microbial control in water at slightly alkaline pH, comparison of oxidants. It is filed as cell-based. The source says: In some embodiments, microbial control in water at slightly alkaline pH was compared between peracetate oxidant, chlorine bleach, peracetic acid and chlorine dioxide. Alkaline pH is encountered in a variety of applications where microbial control and sanitization is needed, including pulp and paper processing.
In some embodiments, microbial control in water at slightly alkaline pH was compared between peracetate oxidant, chlorine bleach, peracetic acid and chlorine dioxide. Alkaline pH is encountered in a variety of applications where microbial control and sanitization is needed, including water treatment and chill tanks in poultry processing, a type of food processing.

For the compound `OCl` [chlorine bleach, hypochlorite], the “performance as antimicrobial disinfectant” value (shortened to “performance”) is recorded as “lowest performance”.

With `CC(=O)OO` [peracetic acid], the “performance” value is “lowest performance”.

Turning to `[O][Cl+][O-]` [chlorine dioxide], the “performance” value is on record as “performed well”.
